Data reported in ChEMBL document CHEMBL1201861, “Genomics of Drug Sensitity in Cancer screening data, Wellcome Trust Sanger Institute”.

Tests used:
Test in all cases: cells
NCI-H1304 = type: functional, cell-based, Homo sapiens; settings: Homo sapiens, NCI-H1304
Description: SANGER: Inhibition of human NCI-H1304 cell growth in a cell viability assay.

P30-OHK = type: functional, cell-based, Homo sapiens; settings: Homo sapiens, P30-OHK
Description: SANGER: Inhibition of human P30-OHK cell growth in a cell viability assay.

HCE-4 = type: functional, cell-based, Homo sapiens; settings: Homo sapiens, HCE-4
Description: SANGER: Inhibition of human HCE-4 cell growth in a cell viability assay.

Calu-6 = type: functional, cell-based, Homo sapiens; settings: Homo sapiens, Calu-6
Description: SANGER: Inhibition of human Calu-6 cell growth in a cell viability assay.

ES7 = type: functional, cell-based, Homo sapiens; settings: Homo sapiens, ES7
Description: SANGER: Inhibition of human ES7 cell growth in a cell viability assay.

MZ7-mel = type: functional, cell-based, Homo sapiens; settings: Homo sapiens, MZ7-mel
Description: SANGER: Inhibition of human MZ7-mel cell growth in a cell viability assay.

EM-2 = type: functional, cell-based, Homo sapiens; settings: Homo sapiens, EM-2
Description: SANGER: Inhibition of human EM-2 cell growth in a cell viability assay.

LAN-6 = type: functional, cell-based, Homo sapiens; settings: Homo sapiens, LAN-6
Description: SANGER: Inhibition of human LAN-6 cell growth in a cell viability assay.

TGBC1TKB = type: functional, cell-based, Homo sapiens; settings: Homo sapiens, TGBC1TKB
Description: SANGER: Inhibition of human TGBC1TKB cell growth in a cell viability assay.

MV4-11 = type: functional, cell-based, Homo sapiens, MV-4-11; settings: Homo sapiens, MV4-11
Description: SANGER: Inhibition of human MV-4-11 cell growth in a cell viability assay.

NTERA-2-cl-D1 = type: functional, cell-based, Homo sapiens; settings: Homo sapiens, NTERA-2-cl-D1
Description: SANGER: Inhibition of human NTERA-S-cl-D1 cell growth in a cell viability assay.

L-428 = type: functional, cell-based, Homo sapiens; settings: Homo sapiens, L-428
Description: SANGER: Inhibition of human L-428 cell growth in a cell viability assay.

GOTO = type: functional, cell-based, Homo sapiens; settings: Homo sapiens, GOTO
Description: SANGER: Inhibition of human GOTO cell growth in a cell viability assay.

Mo = type: functional, cell-based, Homo sapiens; settings: Homo sapiens, Mo
Description: SANGER: Inhibition of human Mo-T cell growth in a cell viability assay.

SF-126 = type: functional, cell-based, Homo sapiens; settings: Homo sapiens, SF-126
Description: SANGER: Inhibition of human SF126 cell growth in a cell viability assay.

DB = type: functional, cell-based, Homo sapiens; settings: Homo sapiens, DB
Description: SANGER: Inhibition of human DB cell growth in a cell viability assay.

8-MG-BA = type: functional, cell-based, Homo sapiens; settings: Homo sapiens, 8-MG-BA
Description: SANGER: Inhibition of human 8-MG-BA cell growth in a cell viability assay.

BB49-HNC = type: functional, cell-based, Homo sapiens; settings: Homo sapiens, BB49-HNC
Description: SANGER: Inhibition of human BB49-HNC cell growth in a cell viability assay.

NCI-H1395 = type: functional, cell-based, Homo sapiens; settings: Homo sapiens, NCI-H1395
Description: SANGER: Inhibition of human NCI-H1395 cell growth in a cell viability assay.

NB17 = type: functional, cell-based, Homo sapiens; settings: Homo sapiens, NB17
Description: SANGER: Inhibition of human NB17 cell growth in a cell viability assay.

A253 cell line = type: functional, cell-based, Homo sapiens; settings: Homo sapiens, A253
Description: SANGER: Inhibition of human A253 cell growth in a cell viability assay.

IST-SL1 = type: functional, cell-based, Homo sapiens; settings: Homo sapiens, IST-SL1
Description: SANGER: Inhibition of human IST-SL1 cell growth in a cell viability assay.

ONS-76 = type: functional, cell-based, Homo sapiens; settings: Homo sapiens, ONS-76
Description: SANGER: Inhibition of human ONS-76 cell growth in a cell viability assay.

697 = type: functional, cell-based, Homo sapiens; settings: Homo sapiens
Description: SANGER: Inhibition of human 697 cell growth in a cell viability assay.

CGTH-W-1 = type: functional, cell-based, Homo sapiens; settings: Homo sapiens, CGTH-W-1
Description: SANGER: Inhibition of human CGTH-W-1 cell growth in a cell viability assay.

A3-KAW = type: functional, cell-based, Homo sapiens; settings: Homo sapiens, A3-KAW
Description: SANGER: Inhibition of human A3-KAW cell growth in a cell viability assay.

NOS-1 = type: functional, cell-based, Homo sapiens; settings: Homo sapiens, NOS-1
Description: SANGER: Inhibition of human NOS-1 cell growth in a cell viability assay.

HDLM-2 = type: functional, cell-based, Homo sapiens; settings: Homo sapiens, HDLM-2
Description: SANGER: Inhibition of human HDLM-2 cell growth in a cell viability assay.

K562 = type: functional, cell-based, Homo sapiens; settings: Homo sapiens, K562
Description: SANGER: Inhibition of human K-562 cell growth in a cell viability assay.

ML-2 = type: functional, cell-based, Homo sapiens; settings: Homo sapiens, ML-2
Description: SANGER: Inhibition of human ML-2 cell growth in a cell viability assay.

SW872 = type: functional, cell-based, Homo sapiens; settings: Homo sapiens, SW872
Description: SANGER: Inhibition of human SW872 cell growth in a cell viability assay.

LB2241-RCC = type: functional, cell-based, Homo sapiens; settings: Homo sapiens, LB2241-RCC
Description: SANGER: Inhibition of human LB2241-RCC cell growth in a cell viability assay.

MPP-89 = type: functional, cell-based, Homo sapiens; settings: Homo sapiens, MPP-89
Description: SANGER: Inhibition of human MPP-89 cell growth in a cell viability assay.

LS-513 = type: functional, cell-based, Homo sapiens; settings: Homo sapiens, LS-513
Description: SANGER: Inhibition of human LS-513 cell growth in a cell viability assay.

KS-1 = type: functional, cell-based, Homo sapiens; settings: Homo sapiens, KS-1
Description: SANGER: Inhibition of human KS-1 cell growth in a cell viability assay.

MZ2-MEL = type: functional, cell-based, Homo sapiens; settings: Homo sapiens, MZ2-MEL
Description: SANGER: Inhibition of human MZ2-MEL cell growth in a cell viability assay.

SF-539 = type: functional, cell-based, Homo sapiens; settings: Homo sapiens, SF-539
Description: SANGER: Inhibition of human SF539 cell growth in a cell viability assay.

NCI-H1838 = type: functional, cell-based, Homo sapiens; settings: Homo sapiens, NCI-H1838
Description: SANGER: Inhibition of human NCI-H1838 cell growth in a cell viability assay.

KU812 cell line = type: functional, cell-based, Homo sapiens; settings: Homo sapiens, KU812
Description: SANGER: Inhibition of human KU812 cell growth in a cell viability assay.

MFH-ino = type: functional, cell-based, Homo sapiens; settings: Homo sapiens, MFH-ino
Description: SANGER: Inhibition of human MFH-ino cell growth in a cell viability assay.

CAS-1 = type: functional, cell-based, Homo sapiens; settings: Homo sapiens, CAS-1
Description: SANGER: Inhibition of human CAS-1 cell growth in a cell viability assay.

OCUB-M = type: functional, cell-based, Homo sapiens; settings: Homo sapiens, OCUB-M
Description: SANGER: Inhibition of human OCUB-M cell growth in a cell viability assay.

SNU1 = type: functional, cell-based, Homo sapiens; settings: Homo sapiens, SNU1
Description: SANGER: Inhibition of human NCI-SNU-1 cell growth in a cell viability assay.

NCI-H2126 = type: functional, cell-based, Homo sapiens; settings: Homo sapiens, NCI-H2126
Description: SANGER: Inhibition of human NCI-H2126 cell growth in a cell viability assay.

NB69 = type: functional, cell-based, Homo sapiens; settings: Homo sapiens, NB69
Description: SANGER: Inhibition of human NB69 cell growth in a cell viability assay.

KP-N-YS = type: functional, cell-based, Homo sapiens; settings: Homo sapiens, KP-N-YS
Description: SANGER: Inhibition of human KP-N-YS cell growth in a cell viability assay.

NCI-H720 = type: functional, cell-based, Homo sapiens; settings: Homo sapiens, NCI-H720
Description: SANGER: Inhibition of human NCI-H720 cell growth in a cell viability assay.

KY821 = type: functional, cell-based, Homo sapiens; settings: Homo sapiens, KY821
Description: SANGER: Inhibition of human KY821 cell growth in a cell viability assay.

## CC(=O)O[C@H]1C(=O)[C@@]2(C)[C@H]([C@H](OC(=O)c3ccccc3)[C@]3(O)C[C@H](OC(=O)[C@H](O)[C@@H](NC(=O)c4ccccc4)c4ccccc4)C(C)=C1C3(C)C)[C@]1(OC(C)=O)CO[C@@H]1C[C@@H]2O [PACLITAXEL]
NCI-H1304
  IC50: 52.1 nM
P30-OHK
  IC50: > 102 nM
HCE-4
  IC50: 7.67 nM
Calu-6
  IC50: 10.1 nM
ES7
  IC50: > 102 nM
MZ7-mel
  IC50: 40.4 nM
EM-2
  IC50: > 102 nM
LAN-6
  IC50: > 102 nM
TGBC1TKB
  IC50: 17.5 nM
MV4-11
  IC50: 4.75 nM
NTERA-2-cl-D1
  IC50: 2.09 nM
L-428
  IC50: > 102 nM
GOTO
  IC50: > 102 nM
Mo
  IC50: > 102 nM
SF-126
  IC50: 61.3 nM
DB
  IC50: > 102 nM
8-MG-BA
  IC50: 7.96 nM
BB49-HNC
  IC50: > 102 nM
NCI-H1395
  IC50: > 102 nM
NB17
  IC50: 49.8 nM
A253 cell line
  IC50: 17.4 nM
IST-SL1
  IC50: 30.4 nM
ONS-76
  IC50: 20.4 nM
697
  IC50: 1.5 nM
CGTH-W-1
  IC50: 54.5 nM
A3-KAW
  IC50: 73.5 nM
NOS-1
  IC50: 6.5 nM
HDLM-2
  IC50: 43.9 nM
K562
  IC50: 15.2 nM
ML-2
  IC50: 20.5 nM
SW872
  IC50: 42.1 nM
LB2241-RCC
  IC50: > 102 nM
MPP-89
  IC50: > 102 nM
LS-513
  IC50: > 102 nM
KS-1
  IC50: 5.82 nM
MZ2-MEL
  IC50: 47.4 nM
SF-539
  IC50: 24 nM
NCI-H1838
  IC50: > 102 nM
KU812 cell line
  IC50: 20.4 nM
MFH-ino
  IC50: 2.68 nM
CAS-1
  IC50: > 102 nM
OCUB-M
  IC50: 6.62 nM
SNU1
  IC50: > 102 nM
NCI-H2126
  IC50: 27.7 nM
NB69
  IC50: > 102 nM
KP-N-YS
  IC50: > 102 nM
NCI-H720
  IC50: > 102 nM
KY821
  IC50: 27 nM

## N[C@@H](CSC(c1ccccc1)(c1ccccc1)c1ccccc1)C(=O)O [S-TRITYL-L-CYSTEINE]
NCI-H1304
  IC50: > 5120 nM
P30-OHK
  IC50: > 5120 nM
HCE-4
  IC50: 469 nM
Calu-6
  IC50: 427 nM
ES7
  IC50: > 5120 nM
MZ7-mel
  IC50: 3180 nM
EM-2
  IC50: > 5120 nM
LAN-6
  IC50: 3690 nM
TGBC1TKB
  IC50: 2420 nM
MV4-11
  IC50: 381 nM
NTERA-2-cl-D1
  IC50: > 5120 nM
L-428
  IC50: 3210 nM
GOTO
  IC50: > 5120 nM
Mo
  IC50: > 5120 nM
SF-126
  IC50: 3010 nM
DB
  IC50: > 5120 nM
8-MG-BA
  IC50: > 5120 nM
BB49-HNC
  IC50: > 5120 nM
NCI-H1395
  IC50: > 5120 nM
NB17
  IC50: 3070 nM
A253 cell line
  IC50: 3710 nM
IST-SL1
  IC50: 4340 nM
ONS-76
  IC50: > 5120 nM
697
  IC50: 328 nM
CGTH-W-1
  IC50: > 5120 nM
A3-KAW
  IC50: 835 nM
NOS-1
  IC50: 970 nM
HDLM-2
  IC50: 1500 nM
K562
  IC50: 1540 nM
ML-2
  IC50: 2090 nM
SW872
  IC50: 795 nM
LB2241-RCC
  IC50: > 5120 nM
MPP-89
  IC50: > 5120 nM
LS-513
  IC50: > 5120 nM
KS-1
  IC50: 842 nM
MZ2-MEL
  IC50: > 5120 nM
SF-539
  IC50: 2060 nM
NCI-H1838
  IC50: > 5120 nM
KU812 cell line
  IC50: > 5120 nM
MFH-ino
  IC50: 471 nM
CAS-1
  IC50: > 5120 nM
OCUB-M
  IC50: 817 nM
SNU1
  IC50: > 5120 nM
NCI-H2126
  IC50: 2110 nM
NB69
  IC50: 1760 nM
KP-N-YS
  IC50: > 5120 nM
NCI-H720
  IC50: > 5120 nM
KY821
  IC50: 1780 nM

## CCN(CC)CCNC(=O)c1c(C)[nH]c(/C=C2\C(=O)Nc3ccc(F)cc32)c1C [SUNITINIB]
NCI-H1304
  IC50: > 8000 nM
P30-OHK
  IC50: > 8000 nM
HCE-4
  IC50: 3790 nM
Calu-6
  IC50: > 8000 nM
ES7
  IC50: > 8000 nM
MZ7-mel
  IC50: > 8000 nM
EM-2
  IC50: > 8000 nM
LAN-6
  IC50: > 8000 nM
TGBC1TKB
  IC50: > 8000 nM
MV4-11
  IC50: < 31.2 nM
NTERA-2-cl-D1
  IC50: > 8000 nM
L-428
  IC50: > 8000 nM
GOTO
  IC50: > 8000 nM
Mo
  IC50: > 8000 nM
SF-126
  IC50: 3060 nM
DB
  IC50: > 8000 nM
8-MG-BA
  IC50: 6520 nM
BB49-HNC
  IC50: 3710 nM
NCI-H1395
  IC50: > 8000 nM
NB17
  IC50: > 8000 nM
A253 cell line
  IC50: > 8000 nM
IST-SL1
  IC50: > 8000 nM
ONS-76
  IC50: > 8000 nM
697
  IC50: 614 nM
CGTH-W-1
  IC50: 30.9 nM
A3-KAW
  IC50: 1630 nM
NOS-1
  IC50: 15.3 nM
HDLM-2
  IC50: 6320 nM
K562
  IC50: > 8000 nM
ML-2
  IC50: 2640 nM
SW872
  IC50: > 8000 nM
LB2241-RCC
  IC50: > 8000 nM
MPP-89
  IC50: > 8000 nM
LS-513
  IC50: > 8000 nM
KS-1
  IC50: 1690 nM
MZ2-MEL
  IC50: > 8000 nM
SF-539
  IC50: > 8000 nM
NCI-H1838
  IC50: > 8000 nM
KU812 cell line
  IC50: 6690 nM
MFH-ino
  IC50: > 8000 nM
CAS-1
  IC50: > 8000 nM
OCUB-M
  IC50: > 8000 nM
SNU1
  IC50: > 8000 nM
NCI-H2126
  IC50: > 8000 nM
NB69
  IC50: > 8000 nM
KP-N-YS
  IC50: > 8000 nM
NCI-H720
  IC50: > 8000 nM
KY821
  IC50: 2800 nM
